Test results reported in the CombiSolv-Exp solvation set (Vermeire and Green 2021).

Experiment: solvent given as SMILES

CCCO
Conditions | solvation free energy, 298 K [kcal/mol]
in Brc1ccccc1 | -3.66
in C1CCOC1 | -5.22
in C1COCCO1 | -4.52
in C=CCCCCCCCCCCCCCC | -2.96
in CC#N | -4.84
in CC(C)(C)O | -5.55
in CC(C)CC(C)(C)C | -3
in CC(C)CCCC(C)CCCC(C)CCCCC(C)CCCC(C)CCCC(C)C | -2.6
in CC(C)CO | -5.44
in CC(C)O | -5.53
in CC(C)OC(C)C | -4.39
in CCC1CO1 | -5.09
in CCC(C)=O | -4.97
in CCCC(C)O | -5.34
in CCCCC(CC)COC(=O)CCCCC(=O)OCC(CC)CCCC | -4.07
in CCCCCC | -2.99
in CCCCCCC | -2.97
in CCCCCCCC | -2.91
in CCCCCCCCC=CCCCCCCCC(=O)OCC(COC(=O)CCCCCCCC=CCCCCCCCC)OC(=O)CCCCCCCC=CCCCCCCCC | -3.96
in CCCCCCCCCC | -2.76
in CCCCCCCCCCCCCCCC | -2.7
in CCCCCCCCCCO | -4.8
in CCCCCCCCO | -5.02
in CCCCCO | -5.43
in CCCCO | -5.22
in CCCCOC(C)=O | -4.65
in CCCOCCC | -4.2
in CCO | -5.69
in CCOC(=O)c1ccccc1C(=O)OCC | -4.09
in CCOCCO | -5.33
in CCOP(=O)(OCC)OCC | -5.39
in CN1CCCC1=O | -5.69
in CN1CCN(C)C1=O | -5.51
in CN(C)C=O | -5.57
in CO | -5.92
in COC(C)(C)C | -4.6
in COC(C)=O | -4.88
in Cc1ccc(C)cc1 | -3.73
in Cc1cccc(C)c1 | -3.72
in ClC(Cl)(Cl)Cl | -3.53
in Clc1ccccc1 | -3.83
in FC(F)(F)C(F)(F)C(F)(F)C(F)(F)C(F)(F)C(F)(F)C(F)(F)F | -1.69
in FC(F)(F)C(F)(F)C(F)(F)C(F)(F)C(F)(F)C(F)(F)F | -1.74
in NC=O | -4.84
in O | -4.88
in O=CN1CCOCC1 | -5.02
in OCC(O)CO | -4.37
in OCCOCCO | -5.2
in [2H]O[2H] | -4.95
in c1ccccc1 | -3.97

OCCO
Conditions | solvation free energy, 298 K [kcal/mol]
in O | -9.3

Clc1ccc(C(c2ccc(Cl)cc2)C(Cl)Cl)cc1
Conditions | solvation free energy, 298 K [kcal/mol]
in CCCCCCCCO | -13.7
in O | -4.88
